Measured values: ChEMBL document CHEMBL4020788, “Synthesis, SAR and molecular docking studies of benzo[d]thiazole-hydrazones as potential antibacterial and antifungal agents” (2017)
In brackets after ≈: the same amount, converted by molar mass.

Experiments:
Format in all cases: functional
[1] = system: Staphylococcus aureus; assay: Antibacterial activity against methicillin resistant Staphylococcus aureus MRSA090 at 25 ug/ml after 24 hrs by agar well diffusion method; conditions: MRSA090, 24 h, read-out: DIZ
[2] = system: Bacillus subtilis; assay: Antibacterial activity against Bacillus subtilis at 25 ug/ml after 24 hrs by agar well diffusion method; conditions: read-out: DIZ
[3] = system: Klebsiella pneumoniae; assay: Antibacterial activity against Klebsiella pneumoniae at 75 ug/ml after 24 hrs by agar well diffusion method; conditions: read-out: DIZ
[4] = system: Aspergillus niger; assay: Antifungal activity against Aspergillus niger at 75 ug/ml after 48 hrs by agar well diffusion method; conditions: read-out: DIZ
[5] = system: Klebsiella pneumoniae; assay: Antibacterial activity against Klebsiella pneumoniae at 50 ug/ml after 24 hrs by agar well diffusion method; conditions: read-out: DIZ
[6] = system: Escherichia coli; assay: Antibacterial activity against Escherichia coli at 100 ug/ml after 24 hrs by agar well diffusion method; conditions: read-out: DIZ
[7] = system: Staphylococcus aureus; assay: Antibacterial activity against Staphylococcus aureus at 25 ug/ml after 24 hrs by agar well diffusion method; conditions: read-out: DIZ
[8] = system: Escherichia coli; assay: Antibacterial activity against Escherichia coli at 75 ug/ml after 24 hrs by agar well diffusion method; conditions: read-out: DIZ
[9] = system: Aspergillus niger; assay: Antifungal activity against Aspergillus niger at 50 ug/ml after 48 hrs by agar well diffusion method; conditions: read-out: DIZ
[10] = system: Staphylococcus aureus; assay: Antibacterial activity against methicillin resistant Staphylococcus aureus MRSA090 at 75 ug/ml after 24 hrs by agar well diffusion method; conditions: MRSA090, 24 h, read-out: DIZ
[11] = system: Fusarium verticillioides; assay: Antifungal activity against Fusarium moniliforme at 100 ug/ml after 48 hrs by agar well diffusion method; conditions: read-out: DIZ
[12] = system: Staphylococcus aureus; assay: Antibacterial activity against Staphylococcus aureus at 50 ug/ml after 24 hrs by agar well diffusion method; conditions: read-out: DIZ
[13] = system: Fusarium oxysporum; assay: Antifungal activity against Fusarium oxysporum at 100 ug/ml after 48 hrs by agar well diffusion method; conditions: read-out: DIZ
[14] = system: Staphylococcus aureus; assay: Antibacterial activity against methicillin resistant Staphylococcus aureus MRSA090 at 100 ug/ml after 24 hrs by agar well diffusion method; conditions: MRSA090, 24 h, read-out: DIZ
[15] = system: Bacillus subtilis; assay: Antibacterial activity against Bacillus subtilis incubated for overnight by microdilution method
[16] = system: Staphylococcus aureus; assay: Antibacterial activity against methicillin resistant Staphylococcus aureus MRSA090 at 50 ug/ml after 24 hrs by agar well diffusion method; conditions: MRSA090, 24 h, read-out: DIZ
[17] = system: Aspergillus niger; assay: Antifungal activity against Aspergillus niger at 100 ug/ml after 48 hrs by agar well diffusion method; conditions: read-out: DIZ
[18] = system: Klebsiella pneumoniae; assay: Antibacterial activity against Klebsiella pneumoniae at 100 ug/ml after 24 hrs by agar well diffusion method; conditions: read-out: DIZ
[19] = system: Staphylococcus aureus; assay: Antibacterial activity against methicillin resistant Staphylococcus aureus MRSA090 incubated for overnight by microdilution method
[20] = system: Staphylococcus aureus; assay: Antibacterial activity against Staphylococcus aureus at 100 ug/ml after 24 hrs by agar well diffusion method; conditions: read-out: DIZ
[21] = system: Fusarium verticillioides; assay: Antifungal activity against Fusarium moniliforme after 48 to 72 hrs by microdilution method
[22] = system: Escherichia coli; assay: Antibacterial activity against Escherichia coli at 25 ug/ml after 24 hrs by agar well diffusion method; conditions: read-out: DIZ
[23] = system: Bacillus subtilis; assay: Antibacterial activity against Bacillus subtilis at 75 ug/ml after 24 hrs by agar well diffusion method; conditions: read-out: DIZ
[24] = system: Fusarium oxysporum; assay: Antifungal activity against Fusarium oxysporum at 75 ug/ml after 48 hrs by agar well diffusion method; conditions: read-out: DIZ
[25] = system: Fusarium verticillioides; assay: Antifungal activity against Fusarium moniliforme at 25 ug/ml after 48 hrs by agar well diffusion method; conditions: read-out: DIZ
[26] = system: Fusarium verticillioides; assay: Antifungal activity against Fusarium moniliforme at 75 ug/ml after 48 hrs by agar well diffusion method; conditions: read-out: DIZ
[27] = system: Klebsiella pneumoniae; assay: Antibacterial activity against Klebsiella pneumoniae incubated for overnight by microdilution method
[28] = system: Fusarium oxysporum; assay: Antifungal activity against Fusarium oxysporum at 25 ug/ml after 48 hrs by agar well diffusion method; conditions: read-out: DIZ
[29] = system: Aspergillus niger; assay: Antifungal activity against Aspergillus niger after 48 to 72 hrs by microdilution method
[30] = system: Klebsiella pneumoniae; assay: Antibacterial activity against Klebsiella pneumoniae at 25 ug/ml after 24 hrs by agar well diffusion method; conditions: read-out: DIZ
[31] = system: Fusarium oxysporum; assay: Antifungal activity against Fusarium oxysporum after 48 to 72 hrs by microdilution method
[32] = system: Fusarium verticillioides; assay: Antifungal activity against Fusarium moniliforme at 50 ug/ml after 48 hrs by agar well diffusion method; conditions: read-out: DIZ
[33] = system: Staphylococcus aureus; assay: Antibacterial activity against Staphylococcus aureus at 75 ug/ml after 24 hrs by agar well diffusion method; conditions: read-out: DIZ
[34] = system: Staphylococcus aureus; assay: Antibacterial activity against Staphylococcus aureus incubated for overnight by microdilution method
[35] = system: Bacillus subtilis; assay: Antibacterial activity against Bacillus subtilis at 50 ug/ml after 24 hrs by agar well diffusion method; conditions: read-out: DIZ
[36] = system: Fusarium oxysporum; assay: Antifungal activity against Fusarium oxysporum at 50 ug/ml after 48 hrs by agar well diffusion method; conditions: read-out: DIZ
[37] = system: Aspergillus niger; assay: Antifungal activity against Aspergillus niger at 25 ug/ml after 48 hrs by agar well diffusion method; conditions: read-out: DIZ
[38] = system: Bacillus subtilis; assay: Antibacterial activity against Bacillus subtilis at 100 ug/ml after 24 hrs by agar well diffusion method; conditions: read-out: DIZ
[39] = system: Escherichia coli; assay: Antibacterial activity against Escherichia coli at 50 ug/ml after 24 hrs by agar well diffusion method; conditions: read-out: DIZ
[40] = system: Escherichia coli; assay: Antibacterial activity against Escherichia coli incubated for overnight by microdilution method

Which results are given for Cc1cccc2nc(N/N=C/c3cc(O)c(O)c(O)c3)sc12?
zone of inhibition at 25 µg/mL [1]: 20 mm; zone of inhibition at 25 µg/mL [2]: 14 mm; zone of inhibition at 75 µg/mL [3]: 28 mm; zone of inhibition at 75 µg/mL [4]: 20 mm; zone of inhibition at 50 µg/mL [5]: 23 mm; zone of inhibition at 100 µg/mL [6]: 37 mm; zone of inhibition at 25 µg/mL [7]: 17 mm; zone of inhibition at 75 µg/mL [8]: 26 mm; zone of inhibition at 50 µg/mL [9]: 14 mm; zone of inhibition at 75 µg/mL [10]: 33 mm; zone of inhibition at 100 µg/mL [11]: 34 mm; zone of inhibition at 50 µg/mL [12]: 24 mm; zone of inhibition at 100 µg/mL [13]: 33 mm; zone of inhibition at 100 µg/mL [14]: 37 mm; MIC [15]: 15 µg/mL (≈ 47.6 µM); zone of inhibition at 50 µg/mL [16]: 26 mm; zone of inhibition at 100 µg/mL [17]: 23 mm; zone of inhibition at 100 µg/mL [18]: 37 mm; MIC [19]: 18 µg/mL (≈ 57.1 µM); zone of inhibition at 100 µg/mL [20]: 31 mm; MIC [21]: 25 µg/mL (≈ 79.3 µM); zone of inhibition at 25 µg/mL [22]: 14 mm; zone of inhibition at 75 µg/mL [23]: 27 mm; zone of inhibition at 75 µg/mL [24]: 27 mm; zone of inhibition at 25 µg/mL [25]: 10 mm; zone of inhibition at 75 µg/mL [26]: 26 mm; MIC [27]: 24 µg/mL (≈ 76.1 µM); zone of inhibition at 25 µg/mL [28]: 15 mm; MIC [29]: 28 µg/mL (≈ 88.8 µM); zone of inhibition at 25 µg/mL [30]: 17 mm; MIC [31]: 22 µg/mL (≈ 69.8 µM); zone of inhibition at 50 µg/mL [32]: 17 mm; zone of inhibition at 75 µg/mL [33]: 28 mm; MIC [34]: 17 µg/mL (≈ 53.9 µM); zone of inhibition at 50 µg/mL [35]: 22 mm; zone of inhibition at 50 µg/mL [36]: 22 mm; zone of inhibition at 25 µg/mL [37]: 10 mm; zone of inhibition at 100 µg/mL [38]: 35 mm; zone of inhibition at 50 µg/mL [39]: 20 mm; MIC [40]: 19 µg/mL (≈ 60.2 µM)

Which zone of inhibition at 25 µg/mL [1] does the source give for COc1cc(/C=N/Nc2nc3cccc(C)c3s2)cc(OC)c1OC here?
The zone of inhibition at 25 µg/mL was 19 mm.

And the zone of inhibition at 25 µg/mL [2]?
Its zone of inhibition at 25 µg/mL is 19 mm.

What about the zone of inhibition at 75 µg/mL [3] of the same compound?
The zone of inhibition at 75 µg/mL was 33 mm.

And the zone of inhibition at 75 µg/mL [4]?
Its zone of inhibition at 75 µg/mL is 20 mm.

What about the zone of inhibition at 50 µg/mL [5] of the same compound?
Its zone of inhibition at 50 µg/mL is 27 mm.

And the zone of inhibition at 100 µg/mL [6]?
Its zone of inhibition at 100 µg/mL is 36 mm.

And the zone of inhibition at 25 µg/mL [7]?
Its zone of inhibition at 25 µg/mL is 22 mm.

And the zone of inhibition at 75 µg/mL [8]?
The zone of inhibition at 75 µg/mL was 31 mm.

And the zone of inhibition at 50 µg/mL [9]?
Its zone of inhibition at 50 µg/mL is 14 mm.

What about the zone of inhibition at 75 µg/mL [10] of the same compound?
Its zone of inhibition at 75 µg/mL is 31 mm.

And the zone of inhibition at 100 µg/mL [11]?
The zone of inhibition at 100 µg/mL was 37 mm.

And the zone of inhibition at 50 µg/mL [12]?
Its zone of inhibition at 50 µg/mL is 28 mm.

What about the zone of inhibition at 100 µg/mL [13] of the same compound?
The zone of inhibition at 100 µg/mL was 20 mm.

And the zone of inhibition at 100 µg/mL [14]?
The zone of inhibition at 100 µg/mL was 34 mm.

And the MIC [15]?
Its MIC is 18 µg/mL (≈ 50.4 µM).

And the zone of inhibition at 50 µg/mL [16]?
The zone of inhibition at 50 µg/mL was 25 mm.

And the zone of inhibition at 100 µg/mL [17]?
Its zone of inhibition at 100 µg/mL is 21 mm.

And the zone of inhibition at 100 µg/mL [18]?
Its zone of inhibition at 100 µg/mL is 38 mm.

And the MIC [19]?
Its MIC is 19 µg/mL (≈ 53.2 µM).

What about the zone of inhibition at 100 µg/mL [20] of the same compound?
Its zone of inhibition at 100 µg/mL is 38 mm.

And the MIC [21]?
Its MIC is 26 µg/mL (≈ 72.7 µM).

What about the zone of inhibition at 25 µg/mL [22] of the same compound?
The zone of inhibition at 25 µg/mL was 20 mm.

What about the zone of inhibition at 75 µg/mL [23] of the same compound?
The zone of inhibition at 75 µg/mL was 28 mm.

What about the zone of inhibition at 75 µg/mL [24] of the same compound?
Its zone of inhibition at 75 µg/mL is 17 mm.

And the zone of inhibition at 25 µg/mL [25]?
Its zone of inhibition at 25 µg/mL is 23 mm.

What about the zone of inhibition at 75 µg/mL [26] of the same compound?
The zone of inhibition at 75 µg/mL was 33 mm.

And the MIC [27]?
Its MIC is 22 µg/mL (≈ 61.5 µM).

And the zone of inhibition at 25 µg/mL [28]?
Its zone of inhibition at 25 µg/mL is 7 mm.

And the MIC [29]?
Its MIC is 30 µg/mL (≈ 83.9 µM).

And the zone of inhibition at 25 µg/mL [30]?
Its zone of inhibition at 25 µg/mL is 21 mm.

And the MIC [31]?
The MIC was 23 µg/mL (≈ 64.3 µM).

And the zone of inhibition at 50 µg/mL [32]?
The zone of inhibition at 50 µg/mL was 28 mm.

What about the zone of inhibition at 75 µg/mL [33] of the same compound?
The zone of inhibition at 75 µg/mL was 33 mm.

What about the MIC [34] of the same compound?
Its MIC is 19 µg/mL (≈ 53.2 µM).

What about the zone of inhibition at 50 µg/mL [35] of the same compound?
Its zone of inhibition at 50 µg/mL is 24 mm.

And the zone of inhibition at 50 µg/mL [36]?
The zone of inhibition at 50 µg/mL was 11 mm.

And the zone of inhibition at 25 µg/mL [37]?
Its zone of inhibition at 25 µg/mL is 9 mm.

What about the zone of inhibition at 100 µg/mL [38] of the same compound?
The zone of inhibition at 100 µg/mL was 33 mm.

What about the zone of inhibition at 50 µg/mL [39] of the same compound?
The zone of inhibition at 50 µg/mL was 25 mm.

What about the MIC [40] of the same compound?
Its MIC is 20 µg/mL (≈ 56 µM).
